Structures can show the parent of a compound that is named as a salt. Where two headings read alike, the source gives them in different places.
What was measured:
rats [1] = test: in vivo
Experimental: (§1) In the present study the test compounds were administered perorally by means of a stomach tube as an aqueous suspension in 5% acacia gum at a constant volume of 10 ml/kg to male Swiss mice and male Sprague-Dawley rats. Control rats and mice were given a corresponding volume of the aqueous suspension medium.
(§2) The acute toxicity was determined on groups of 10 rats treated orally with 500, 1000, 1500 and 2000 mg/kg of the test compound by means of a stomach tube.

in vivo = conditions: rat, in vivo, po
Experimental: as §1, §2

rats [2] = assay type: in vivo, male Sprague-Dawley rats; conditions: 40 mg/kg oral
Experimental: as §1, with “medium. The results were statistically evaluated by Dunnett's test (C. V. Dunnett.: J.A. Stat. Ass., 40, 1096, 1955).” for “medium.”
1. Anti-inflammatory activity
The anti-inflammatory activity was determined in the carrageenin edema test according to Winter et al., (see C. A. Winter, E. A. Risley, G. W. Muss: J. Pharm. Exp. Ther., 141, 369, 1963).
The edema was provoked in rats by a subplantar injection into the right hind paw of 0.1 ml of a 1% carrageenin suspension in sterile saline solution.
Rats were treated orally with the test compound 60 minutes before the injection of carrageenin. The volume of the foot was measured with a mercury differential volume-meter immediately before injection of the phlogistic agent, and 3 and 5 hours thereafter. The anti-inflammatory activity was evaluated as percent edema inhibition of treated rats in comparison with the controls, according to the following formula: [formula]

CC(C)=CCC(C(=O)O)C(=O)N(Nc1ccccc1)c1ccccc1 (centres unmarked) [A, Calcium salt of (3-methyl-2-butenyl)propanedioic acid mono(1,2-diphenylhydrazide)]
LD50 confidence limits (rats [1]; rat, in vivo, po): 721.30 to 1550.51 mg/kg
toxicity compared with prior art compound (rats [1]; summary, Table VII): less toxic
LD50 at 168 h (in vivo): 1060 mg/kg

CCCCC(C(=O)O)C(=O)N(Nc1ccccc1)c1ccccc1 (centres unmarked) [B, Calcium salt of butylpropanedioic acid mono(1,2-diphenylhydrazide), reference compound]
Edema volume, mean ± standard deviation (rats [2]; 3 h after carrageenin): 1.42 ± 0.27 mL
Edema volume, mean ± standard deviation (rats [2]; 5 h after carrageenin): 2.06 ± 0.42 mL

Source: patent US4301177A, “(3-Methyl-2-butenyl)propanedioic acid mono (1,2-diphenylhydrazide) and salts thereof” (Istituto de Angeli S.p.A., priority 1979, dated 1981)
